The values that follow come from patent US20170267667A1, “[…] AS NON-NUCLEOSIDE REVERSE TRANSCRIPTASE INHIBITORS FOR ANTI-HIV-1 CHEMOTHERAPY” (Purdue Research Foundation, priority 2016, published 2017).

One data set has as its system HIV-1RF. In words: XTT cytoprotection assay, HIV-1RF infection in CEM-SS cells. The class given is cell-based. As to conditions: for SI (CC50/EC50) CEM-SS cells: CC50/EC50 ratio, HIV-1RF in CEM-SS cells; for EC50: Human immunodeficiency virus 1, inhibition of cytopathicity of HIV-1RF in CEM-SS cells. The protocol:
(§1) In Vitro Antiviral Assay. Evaluation of the antiviral activity of compounds against HIV- 1RF infection in CEM-SS cells was performed using the XTT cytoprotection assay, as previously described (Buckheit, R. W. Jr., et al., Antiviral Res. 1995, 26, 117-132). Evaluation of the antiviral activity of compounds against HIV-1IIIB and HIV-2ROD in MT-4 cells was performed using the MTT assay, as previously described (Rice, W. G. and Bader, J. P., Adv. Pharmacol. (San Diego) 1995, 33, 389-438).
(Formazan colour is commonly taken as a measure of viable cells.)

Data set [1] in a line: Cytotoxicity for mock-infected MT-4 cells. In kind it is cell-based. As to conditions: human. The protocol:
as §1
(§2) Biological Results. The antiviral activities of the ADAMs were evaluated by determining their ability to inhibit the enzymatic activity of HIV-1 RT in vitro (IC50) and protect HIV-infected cells from the cytopathic effects (EC50) of two viral strains (HIV-1RF and HIV-1IIIB). The cytotoxicities (CC50) of the ADAMs were determined on CEM-SS cells and MT-4 cells.

Data set [2] can be described thus: Cytotoxicity for mock-infected CEM-SS cells. Conditions: human. In kind it is cell-based. On the procedure: as §1, §2
The subject of another data set is HIV-1IIIB. The data set is described as follows: MTT assay, HIV-1IIIB in MT-4 cells. The class given is cell-based. As to conditions: for SI (CC50/EC50) MT-4 cells: CC50/EC50 ratio, HIV-1IIIB in MT-4 cells; for EC50: Human immunodeficiency virus 1, MT4, inhibition of cytopathicity of HIV-1IIIB in MT-4 cells. The protocol: as §1
Data set [3] concerns the target HIV-1 reverse transcriptase (Human immunodeficiency virus type 1 group M subtype B, UniProt P04585). The data set is described as follows: RT inhibition assay, incorporation of [32P]GTP into poly(rC)/oligo(dG) template primer. The class given is biochemical. As to conditions: poly(rC):oligo(dG) as the template primer; mean of at least two experiments; read-out: IC50 inhibitory activity versus HIV-1 reverse transcriptase. On the procedure: RT Inhibition Assay. Inhibition of purified recombinant reverse transcriptase was measured by the incorporation of [^32P]GTP into poly(rC)/oligo(dG) homopolymer template primers, as previously described (Cushman, M., et al., J. Med. Chem. 1996, 39, 3217-3227).

By EC50 is commonly meant the concentration that produces a half-maximal response. The low end stands for an effect from little substance, the high end for a need for much substance. As a reminder, the CC50 is the concentration giving 50% cytotoxicity. A low value points to greater toxicity to the cells. For orientation: IC50 means the midpoint of a concentration-inhibition curve. On to `CON=C(F)c1cc(/C(=C\CCCc2nnc(C)o2)c2cc(C)c3oc(=O)n(C)c3c2)cc(C)c1OC` [ADAM 5, 5-[(1E)-1-(3,7-Dimethyl-2-oxo-2,3-dihydro-1,3-benzoxazol-5-yl)-5-(5-methyl-1,3,4-oxadiazol-2-yl)pent-1-en-1-yl]-N,2-dimethoxy-3-methylbenzenecarboximidoyl Fluoride], for which, in the data set with HIV-1RF, the “SI (CC50/EC50) CEM-SS cells” value stood at 13 and the EC50 amounted to 0.5 µM. For the same compound, the midpoint of cytotoxicity in data set [1], the CC50, lay at 26.5 µM. In data set [2], the CC50 turned out to be 6.5 µM. In the data set with HIV-1IIIB, the “SI (CC50/EC50) MT-4 cells” value came to 76 and the EC50 amounted to 0.35 µM. For the same compound, the IC50 in data set [3] was 3.4 µM.

In the case of `CON=C(F)c1cc(/C(=C\CCCN2CCOC2=O)c2cc(C)c3oc(=O)n(C)c3c2)cc(C)c1OC` [ADAM 6, 5-[(1E)-1-(3,7-Dimethyl-2-oxo-2,3-dihydro-1,3-benzoxazol-5-yl)-5-(2-oxo-1,3-oxazolidin-3-yl)pent-1-en-1-yl]-N,2-dimethoxy-3-methylbenzenecarboximidoyl Fluoride], the half-maximal effective concentration (EC50) in the data set on HIV-1RF is greater than 100 µM; with HIV-1IIIB, greater than 7.53 µM. Further, the figures for the CC50 in data set [1] and in data set [2] were 7.53 µM and 5.04 µM, respectively. In addition, in data set [3], the IC50 is 2.37 µM.

Consider `CON=C(F)c1cc(/C(=C\CCCc2nnc(C)o2)c2cc(C)c3onc(OC)c3c2)cc(C)c1OC` [ADAM 7, N,2-Dimethoxy-5-[(1Z)-1-(3-methoxy-7-methyl-1,2-benzoxazol-5-yl)-5-(5-methyl-1,3,4-oxadiazol-2-yl)pent-1-en-1-yl]-3-methylbenzenecarboximidoyl Fluoride], for which, in the data set on HIV-1RF, the “SI (CC50/EC50) CEM-SS cells” value worked out at 7 and the EC50 is 1.9 µM. Moreover, the 50% cytotoxic concentration (CC50) in data set [1] was found to be 15.8 µM. Further, the midpoint of cytotoxicity in data set [2], the CC50, lay at 13.9 µM. Further, in the data set on HIV-1IIIB, the “SI (CC50/EC50) MT-4 cells” value was found to be 6 and the response was half-maximal at 2.86 µM (EC50). In addition, the 50% inhibitory concentration (IC50) in data set [3] turned out to be 1.4 µM.

Regarding `CON=C(F)c1cc(/C(=C\CCCc2nc(C)no2)c2cc(C)c3onc(OC)c3c2)cc(C)c1OC` [ADAM 8, N,2-Dimethoxy-5-[(1Z)-1-(3-methoxy-7-methyl-1,2-benzoxazol-5-yl)-5-(3-methyl-1,2,4-oxadiazol-5-yl)pent-1-en-1-yl]-3-methylbenzenecarboximidoyl Fluoride], in the data set on HIV-1RF, the “SI (CC50/EC50) CEM-SS cells” value was 3 and the EC50 was 2.04 µM. In addition, the cytotoxic concentration (CC50) in data set [1] was 9.66 µM. Further, in data set [2], the midpoint of cytotoxicity, the CC50, lay at 5.39 µM. In the data set with HIV-1IIIB, the “SI (CC50/EC50) MT-4 cells” value is 2 and a half-maximal effect (EC50) was put at 4.07 µM. Also, in data set [3], the concentration for half-maximal inhibition (IC50) was found to be 1.85 µM.

Consider `CON=C(F)c1cc(/C(=C\CCCN2CCOC2=O)c2cc(C)c3onc(OC)c3c2)cc(C)c1OC` [ADAM 9, N,2-Dimethoxy-5-[(1Z)-1-(3-methoxy-7-methyl-1,2-benzoxazol-5-yl)-5-(2-oxo-1,3-oxazolidin-3-yl)pent-1-en-1-yl]-3-methylbenzenecarboximidoyl Fluoride], for which the EC50 with HIV-1RF is greater than 100 µM; with HIV-1IIIB, greater than 26.1 µM. Besides, the CC50 in data set [1] was 26.1 µM; in data set [2], 17.8 µM. Further, the IC50 in data set [3] is 46.7 µM.

For `CON=C(F)c1cc(/C(=C\CCCc2nnc(C)o2)c2cccc(C#N)c2)cc(C)c1OC` [ADAM 10, 5-[(1Z)-1-(3-Cyanophenyl)-5-(5-methyl-1,3,4-oxadiazol-2-yl)pent-1-en-1-yl]-N,2-dimethoxy-3-methylbenzenecarboximidoyl Fluoride], the EC50 is greater than 100 µM in the data set on HIV-1RF and greater than 1.09 µM with HIV-1IIIB. Besides, the CC50 in data set [1] worked out at 1.07 µM; in data set [2], 1.8 µM. In data set [3], the IC50 came out at 37.1 µM.

With `CON=C(F)c1cc(/C(=C\CCCc2nc(C)no2)c2cccc(C#N)c2)cc(C)c1OC` [ADAM 11, 5-[(1Z)-1-(3-Cyanophenyl)-5-(3-methyl-1,2,4-oxadiazol-5-yl)pent-1-en-1-yl]-N,2-dimethoxy-3-methylbenzenecarboximidoyl Fluoride], the EC50 in the data set on HIV-1RF is greater than 100 µM; in the data set on HIV-1IIIB, greater than 4.04 µM. Moreover, the CC50 in data set [1] amounted to 4.04 µM; in data set [2], 3.5 µM. In addition, the IC50 in data set [3] turned out to be 5.4 µM.

`CON=C(F)c1cc(/C(=C\CCCN2CCOC2=O)c2cccc(C#N)c2)cc(C)c1OC` [ADAM 12, 5-[(1Z)-1-(3-Cyanophenyl)-5-(2-oxo-1,3-oxazolidin-3-yl)pent-1-en-1-yl]-N,2-dimethoxy-3-methylbenzenecarboximidoyl Fluoride]: the EC50 in the data set with HIV-1RF was greater than 100 µM; in the data set on HIV-1IIIB, greater than 1.66 µM. Further, the CC50 in data set [1] and in data set [2] was 1.66 µM in each case. Moreover, the IC50 in data set [3] was greater than 100 µM.

Consider `CON=C(F)c1cc(/C(=C\CCCc2nnc(C)o2)c2ccc(C#N)cc2)cc(C)c1OC` [ADAM 13, 5-[(1Z)-1-(4-Cyanophenyl)-5-(5-methyl-1,3,4-oxadiazol-2-yl)pent-1-en-1-yl]-N,2-dimethoxy-3-methylbenzenecarboximidoyl Fluoride], for which the EC50 was greater than 100 µM with HIV-1RF and no less than 9 µM in the data set on HIV-1IIIB. The values for the CC50 in data set [1] and in data set [2] were 11.4 µM and 6.7 µM, respectively. The “SI (CC50/EC50) MT-4 cells” value with HIV-1IIIB is given as “≦1”. The IC50 in data set [3] was determined as 44.4 µM.

With `CON=C(F)c1cc(/C(=C\CCCc2nc(C)no2)c2ccc(C#N)cc2)cc(C)c1OC` [ADAM 14, 5-[(1Z)-1-(4-Cyanophenyl)-5-(3-methyl-1,2,4-oxadiazol-5-yl)pent-1-en-1-yl]-N,2-dimethoxy-3-methylbenzenecarboximidoyl Fluoride], in the data set on HIV-1RF, the “SI (CC50/EC50) CEM-SS cells” value was 7 and the response was half-maximal at 2.03 µM (EC50). The same compound yielded a cytotoxic concentration (CC50) in data set [1] of 20.4 µM. Besides, the midpoint of cytotoxicity in data set [2], the CC50, lay at 13.4 µM. For the same compound, in the data set on HIV-1IIIB, the “SI (CC50/EC50) MT-4 cells” value is listed as 4 and a half-maximal effect (EC50) was put at 5.55 µM. In data set [3], the IC50 amounted to 0.91 µM.

As for `CON=C(F)c1cc(/C(=C\CCCN2CCOC2=O)c2ccc(C#N)cc2)cc(C)c1OC` [ADAM 15, 5-[(1Z)-1-(4-Cyanophenyl)-5-(2-oxo-1,3-oxazolidin-3-yl)pent-1-en-1-yl]-N,2-dimethoxy-3-methylbenzenecarboximidoyl Fluoride], the EC50 with HIV-1RF is greater than 100 µM; in the data set with HIV-1IIIB, greater than 21.1 µM. In addition, the 50% cytotoxic concentration (CC50) is 21.1 µM in data set [1] and 6.7 µM in data set [2]. Also, the IC50 in data set [3] was greater than 100 µM.

Regarding `CON=C(Cl)c1cc(/C(=C\CCCc2nnc(C)o2)c2cc(C)c3oc(=O)n(C)c3c2)cc(C)c1OC` [ADAM 16, 5-[(1E)-1-(3,7-Dimethyl-2-oxo-2,3-dihydro-1,3-benzoxazol-5-yl)-5-(5-methyl-1,3,4-oxadiazol-2-yl)pent-1-en-1-yl]-N,2-dimethoxy-3-methylbenzenecarboximidoyl Chloride], in the data set with HIV-1RF, the “SI (CC50/EC50) CEM-SS cells” value is 4 and a half-maximal effect (EC50) was put at 1.1 µM. In data set [1], this compound registered a CC50 of 19.9 µM. In data set [2], the 50% cytotoxic concentration (CC50) is 4.7 µM. Besides, in the data set on HIV-1IIIB, the “SI (CC50/EC50) MT-4 cells” value worked out at 27 and the EC50 came to 0.74 µM. The half-inhibitory concentration (IC50) in data set [3] stood at 8.2 µM.

As to `CON=C(Cl)c1cc(/C(=C\CCCc2nc(C)no2)c2cc(C)c3oc(=O)n(C)c3c2)cc(C)c1OC` [ADAM 17, 5-[(1E)-1-(3,7-Dimethyl-2-oxo-2,3-dihydro-1,3-benzoxazol-5-yl)-5-(3-methyl-1,2,4-oxadiazol-5-yl)pent-1-en-1-yl]-N,2-dimethoxy-3-methylbenzenecarboximidoyl Chloride], in the data set on HIV-1RF, the “SI (CC50/EC50) CEM-SS cells” value was determined as 5 and the EC50 turned out to be 0.51 µM. In data set [1], it took 29.4 µM to reach half-maximal cytotoxicity (CC50). In data set [2], this compound had a CC50 of 2.37 µM. Moreover, in the data set on HIV-1IIIB, the “SI (CC50/EC50) MT-4 cells” value is given as 59 and the EC50 is 0.5 µM. For the same compound, the half-inhibitory concentration (IC50) in data set [3] came out at 4.19 µM.

For `CON=C(Cl)c1cc(/C(=C\CCCN2CCOC2=O)c2cc(C)c3oc(=O)n(C)c3c2)cc(C)c1OC` [ADAM 18, 5-[(1E)-1-(3,7-Dimethyl-2-oxo-2,3-dihydro-1,3-benzoxazol-5-yl)-5-(2-oxo-1,3-oxazolidin-3-yl)pent-1-en-1-yl]-N,2-dimethoxy-3-methylbenzenecarboximidoyl Chloride], the EC50 was greater than 100 µM in the data set on HIV-1RF and greater than 5.19 µM in the data set on HIV-1IIIB. For the same compound, the CC50 in data set [1] was 5.19 µM; in data set [2], 5.99 µM. Besides, the 50% inhibitory concentration (IC50) in data set [3] was 62.9 µM.

As for `CON=C(Cl)c1cc(/C(=C\CCCc2nnc(C)o2)c2cc(C)c3onc(OC)c3c2)cc(C)c1OC` [ADAM 19, N,2-Dimethoxy-5-[(1Z)-1-(3-methoxy-7-methyl-1,2-benzoxazol-5-yl)-5-(5-methyl-1,3,4-oxadiazol-2-yl)pent-1-en-1-yl]-3-methylbenzenecarboximidoyl Chloride], in the data set on HIV-1RF, the “SI (CC50/EC50) CEM-SS cells” value was 2 and the EC50 turned out to be 5.2 µM. Further, the CC50 in data set [1] amounted to 17.5 µM. The compound also registered a CC50 in data set [2] of 9.7 µM. Moreover, in the data set with HIV-1IIIB, the “SI (CC50/EC50) MT-4 cells” value is reported as “≦2” and the 50% effective concentration (EC50) was no less than 7.03 µM. The IC50 in data set [3] turned out to be 33.8 µM.
